Laboratory results published in patent publication US20240240150A1, “SPONTANEOUSLY BEATING CARDIAC ORGANOID CONSTRUCTS AND INTEGRATED BODY-ON-CHIP APPARATUS CONTAINING THE SAME” (Wake Forest University Health Sciences, priority 2015, published 2024).
Like-named read-outs stand apart in the source and are kept apart here.

Key:
[1] = test system: liver constructs (bioprinted liver organoids); experiment: On-chip liver construct viability by LIVE/DEAD staining after APAP / NAC; assay type: cell-based; settings: day 14
Experimental: (§1) Liver construct synthetic functionality, response to acetaminophen insult, and intervention with N-acetyl-L-cysteine. To assess the response of the liver organoid system to toxic drug insult, acetaminophen was employed. Liver organoids were cultured in microreactors as described before for 14 days. Media samples were collected on days 3, 6, 10, and 14. After media collection on day 6, 1 set of organoids continued with normal media, 1 set of organoids were treated with 1 mM APAP, and 1 set of organoids were treated with 10 mM APAP. To assess the effectiveness of a countermeasure treatment to be used in the liver organoid system, N-acetyl-L-cysteine was explored as a clinically relevant treatment against APAP-induced toxicity. This final set of organoids was treated with 10 mM APAP and 20 mM N-acetyl-L-cysteine. During media changes, groups receiving the drug treatment received fresh HCM also containing the appropriate drug concentration.
(§2) For assessment of liver organoid albumin and urea secretion under baseline conditions as well as during exposure to APAP, collected media aliquots were analyzed using a Human Albumin ELISA assay (Alpha Diagnostic International) and the amount of secreted urea in the collected media was determined using a Urea colorimetric assay (BioAssay Systems). For viability assessment, organoids were removed immediately after the final media collection time point (day 14) for staining by LIVE/DEAD viability/cytotoxicity kits (Life Technologies). Staining consisted of incubation in 2 uM calcein AM (stains live cells green) and 4 uM EthD-1 (stains dead cells red) in a 1:1 PBS:HCM solution. […] Additionally, media samples were analyzed for presence of lactate dehydrogenase (LDH), an enzyme that is released from cells after toxicity causes cell membrane rupture, using a Lactate Dehydrogenase Assay Kit (Abcam), and for α-GST, a hepatocyte-specific enzyme also released from cells after exposure to toxicity, using an α-GST Assay Kit (Oxford Biomedical Research).

[2] = test system: liver constructs (bioprinted liver organoids); experiment: On-chip liver construct albumin secretion (Human Albumin ELISA); assay type: cell-based; settings: for albumin levels vs 0 mM control: administered after day 6
Experimental: as §1
For assessment of liver organoid albumin and urea secretion under baseline conditions as well as during exposure to APAP, collected media aliquots were analyzed using a Human Albumin ELISA assay (Alpha Diagnostic International) and the amount of secreted urea in the collected media was determined using a Urea colorimetric assay (BioAssay Systems). For viability assessment, organoids were removed immediately after the final media collection time point (day 14) for staining by LIVE/DEAD viability/cytotoxicity kits (Life Technologies). Staining consisted of incubation in 2 uM calcein AM (stains live cells green) and 4 uM EthD-1 (stains dead cells red) in a 1:1 PBS:HCM solution. Following staining, organoids were washed in PBS, fixed in 4% PFA, transferred to PBS, and imaged using macro-confocal microscopy (Leica TCS LSI). Additionally, media samples were analyzed for presence of lactate dehydrogenase (LDH), an enzyme that is released from cells after toxicity causes cell membrane rupture, using a Lactate Dehydrogenase Assay Kit (Abcam), and for α-GST, a hepatocyte-specific enzyme also released from cells after exposure to toxicity, using an α-GST Assay Kit (Oxford Biomedical Research).

[3] = test system: liver constructs (bioprinted liver organoids); experiment: On-chip liver construct urea secretion (colorimetric assay); assay type: cell-based, human
Experimental: as §1, §2

[4] = test system: liver constructs (bioprinted liver organoids); experiment: On-chip liver construct lactate dehydrogenase release into media; assay type: cell-based, human; settings: for LDH concentration in the media: day 10
cardiac organoids [5] = experiment: Cardiac organoid beating rate response to drugs (onboard camera / microscope); assay type: cell-based, human
Text: Cardiac construct baseline function monitoring and beat rate response to drugs. […] First the cover of the webcam is disassembled to retrieve the CMOS sensor. The lens of the webcam is then detached from its initial location, flipped, and integrated back to the holder to convert it into a magnifying lens. A base was then constructed for the mini-microscope to fit onto the bottom of the bioreactors. The base consisted of a dual-layer structure of PMMA sheets (⅛″ Thick, 12″×12″, McMaster 8505K11) cut into the dimensions of the bioreactors using a laser cutter (VLS 2.30 Desktop Laser System, Universal Laser Systems). Using 4 sets of screw/bolts, the CMOS module was tightly clamped in between a pair of PMMA structures. Additional 4 sets of screw/bolts were further mounted at the corners of the structures to function as the focus knobs. Only very minor alteration to the bioreactor itself was needed, i.e., 4 extra holes were drilled on the lower PMMA board to fit the imager at the bottom. During culture of cardiac constructs, videos were captured to analyze cardiac organoid beating rates. Video files were analyzed using custom written MatLab code with a series of MatLab functions. The software created a reference frame, based on the first frame of the video, and compared pixels in each subsequent frame, determining which pixels represented movement over time. The moving pixels in each frame were then used to generate a black and white pixilated representation of beat behavior, allowing visualization of beat propagation, and generation a plot showing the number of moving pixels versus time, allowing determination of beating rates.

[6] = test system: liver constructs (bioprinted liver organoids); experiment: On-chip liver construct alpha-GST release into media; assay type: cell-based, human; settings: 10 mM APAP + 20 mM NAC
Experimental: Liver construct synthetic functionality, response to acetaminophen insult, and intervention with N-acetyl-L-cysteine. To assess the response of the liver organoid system to toxic drug insult, acetaminophen was employed. Liver organoids were cultured in microreactors as described before for 14 days. Media samples were collected on days 3, 6, 10, and 14. After media collection on day 6, 1 set of organoids continued with normal media, 1 set of organoids were treated with 1 mM APAP, and 1 set of organoids were treated with 10 mM APAP. […]
as §2, with “Systems).” for “Systems). For viability assessment, organoids were removed immediately after the final media collection time point (day 14) for staining by LIVE/DEAD viability/cytotoxicity kits (Life Technologies). Staining consisted of incubation in 2 uM calcein AM (stains live cells green) and 4 uM EthD-1 (stains dead cells red) in a 1:1 PBS:HCM solution.”

[7] = test system: bioprinted cardiac tissue constructs (rat neonatal cardiomyocytes); experiment: Bioprinted rat cardiac tissue constructs, response to cardiac drugs; assay type: cell-based
Text: In this study, 3D bioprinting was applied to fabricate functional and contractile cardiac tissue constructs. Rat neonatal heart tissues were obtained to isolate cardiomyocytes, and the cells were suspended in a fibrin-based hydrogel bioink. Cell-laden hydrogel was printed through a 300-micron nozzle by pneumatic pressure. […] Moreover, tissue development of the printed cardiac tissue could accelerate by Notch signal blockade.

cardiac organoids [8] = settings: for increase in beating rate: 0.5 μM
Experimental: Integrated organoid system and integrated response to drugs. To evaluate how the combination of both organoid types together impact drug response, epinephrine and propranolol were tested independently and jointly. In the independent scenario, organoid platforms were prepared in two groups: Group 1 consisted of a set of organoids comprised only of cardiac, with “blank” liver modules. Group 2 consisted of both cardiac and liver. However, it should be noted that cardiac and liver constructs were kept separate for the incubation period, while the drug was administered to the liver construct or “blank” liver module, after which the modules were joined for 30 minutes prior to cardiac beating rate assessment. Baseline cardiac organoid beating rates were determined in each group prior to drug administration. Then, the drugs—either 0.1 μM propranolol or 0.5 μM epinephrine—were administered, allowed to incubate for 1 hour, after which the modules were joined, and data was collected.

cardiac organoids [9] = test system: cardiac organoids
Experimental: To test the integrated response of the liver and cardiac system to epinephrine and propranolol combinations, the experimental groups described above were prepared and the same protocol (individual unit incubation prior to joining of modules) was followed. However, the incubation period was lengthened to overnight (18 hours). Both Group 1 and Group 2 were administered 0.1 uM propranolol. After the incubation period, the modules were joined and 0.5 uM epinephrine was be administered to both groups. Additionally, in parallel, a Group 3 condition was employed, which mirrored Group 2, but used a 2D hepatocyte culture (1-2 million cells/well) instead of the liver construct as a 2D comparison.

liver organoids [10] = experiment: Troglitazone toxicity, organoid viability by CellTiter-Glo ATP assay; assay type: cell-based, human; settings: liver organoids treated for 48 hours
Experimental: Organoid viability assays. Organoid viability was assessed by ATP production as a measure of metabolic activity as detailed in the following white paper^1. CellTiter-Glo assay (Promega) was used to measure ATP by transferring one organoid/well to a black, opaque 96-well plate (Corning). Blanks were included using HCM medium (Lonza) at 80 μl/well. 80 μl of prepared CellTiter-Glo buffer was added per well and plate was placed on shaker for 5 minutes to lyse cells, then further incubated for 15 minutes protected from light. Plate was read using plate reader (SpectraMax M5, Molecular Devices) with an integration time of 0.5 see/well. Sample time points were compared via two-sample unequal variance t-test. Live/dead stain was also used to assess viability. Organoids were washed in PBS and then stained with live/dead viability/cytotoxicity kit (Life Technologies): 2 μL/mL ethidium homodimer-1 and 0.5 μL/mL calcein AM (diluted in PBS) for 45 minutes at room temperature, protected from light. Organoids were transferred to a depression glass slide (Erie Scientific) and then imaged using TCS LSI macro confocal microscope with 5× macro objective (Leica).
Troglitazone toxicity. […] Organoid viability was measured using the CellTiter-Glo assay (Promega) as recorded as previously described.

liver organoids [11] = experiment: Phospholipid accumulation, HCS LipidTox Phospholipidosis Detection Stain; assay type: cell-based, human; settings: 48 hour treatment, even with lower concentrations
Experimental: Accumulation of phospholipids within the organoids was imaged using the HCS LipidTox Phospholipidosis Detection Stain (Invitrogen). LipidTox reagent was added to medium at the same time as the troglitazone at a ratio of 1:500. Following 48 hour drug treatment, organoids were fixed in 4% paraformaldehyde (Sigma Aldrich), washed in PBS, and then transferred to a depression glass slide (Erie Scientific) for imaging using TCS LSI macro confocal with 5× macro objective (Leica).

CC(=O)Nc1ccc(O)cc1 [APAP, acetaminophen]
viability (ratio of live to dead cells, LIVE/DEAD) ([1]; 1 mM APAP): 30-50% | viability (LIVE/DEAD) ([1]; 10 mM APAP): few viable cells | albumin levels vs 0 mM control ([2]; 1 mM APAP): significantly decreased | albumin levels vs 0 mM control ([2]; 10 mM APAP): significantly decreased | albumin levels ([2]; 10 mM APAP, day 14): nearly immeasurable | urea levels ([3]; 1 mM and 10 mM APAP, after administration): drop in a dose dependent manner | LDH concentration in the media ([4]; 10 mM APAP): clear increase in LDH concentration | LDH levels ([4]; 10 mM APAP, day 14): drop down to baseline

CC(C)NCC(O)c1ccc(O)c(O)c1 (stereo not drawn) [Isoproterenol]
organoid beating rate (cardiac organoids [5]; 0.1 mM): increased organoid beating rate

CC(=O)N[C@@H](CS)C(=O)O [NAC, N-acetyl-L-cysteine]
viability (LIVE/DEAD), rescue from APAP ([1]; 10 mM APAP + 20 mM NAC): reduced the level of morbidity | albumin levels vs 10 mM APAP group ([2]; 10 mM APAP + 20 mM NAC): significantly greater than those of the 10 mM APAP treated group | urea levels vs 10 mM APAP ([3]; 10 mM APAP + 20 mM NAC): significantly greater than the 10 mM APAP urea levels | urea levels vs control organoids ([3]; 10 mM APAP + 20 mM NAC): not significantly different than the control organoids | LDH concentration in the media ([4]; 10 mM APAP + 20 mM NAC): almost identical to the control group | alpha-GST in media ([6]; day 10): about 6 ng/mL | alpha-GST in media ([6]; day 14): ~5 ng/mL

C[N+](C)(C)CCOC(N)=O [carbachol]
physiological responses (beating frequency and contraction forces) [7]: showed physiological responses

CNC[C@H](O)c1ccc(O)c(O)c1 [epinephrine]
concentration at which beating rate plateau is reached (cardiac organoids [5]): ≥ 5 µM | organoid beating rate, dose response (cardiac organoids [5]; 0, 0.1, 0.5, 5 and 50 uM): increased in a dose-dependent manner | increase in beating rate (cardiac organoids [8]; cardiac-only system): approximately 40% | increase in beating rate (cardiac organoids [8]; with liver component): ~30% | restoration of the epinephrine-induced increase in beat rate (cardiac organoids [9]; 0.5 μM epinephrine after 0.1 μM propranolol, 2D hepatocyte culture instead of liver construct): failed achieve any restoration | increase in BPM (cardiac organoids [9]; 0.5 μM epinephrine after 0.1 μM propranolol, Group 2, liver component added): 1.25 fold | response relative to control epinephrine-only response (cardiac organoids [9]; 0.5 μM epinephrine after 0.1 μM propranolol, Group 2 with 3D liver organoids): approximately 50% | increase in cardiac BPM (cardiac organoids [9]; 0.5 μM epinephrine, controls with no propranolol): 1.5 fold | physiological responses (beating frequency and contraction forces) [7]: showed physiological responses

CC(C)NCC(O)COc1cccc2ccccc12 (stereo not drawn) [propranolol]
prevention of epinephrine-induced increase in beating rate (cardiac organoids [5]; 0, 0.5, 5, 20 uM propranolol for 20 minutes, then 5 uM epinephrine): more effectively prevented epinephrine-induced increases in beating rates | decrease in beating rate (cardiac organoids [8]; 0.1 μM, cardiac-only system): ~10% | change in beating rate (cardiac organoids [8]; 0.1 μM, in the presence of the liver construct): no decrease in beating rate | block of beta-adrenergic effects of 0.5 μM epinephrine (cardiac organoids [9]; 0.1 μM propranolol, Group 1, no liver organoids): successfully blocked

C=C[C@H]1C[N@@]2CC[C@H]1C[C@@H]2[C@@H](O)c1ccnc2ccc(OC)cc12 [quinidine]
organoid beating rate (cardiac organoids [5]; 1 μM): slowed organoid beating rate

Cc1c(C)c2c(c(C)c1O)CCC(C)(COc1ccc(CC3SC(=O)NC3=O)cc1)O2 (stereo not drawn) [troglitazone]
viability (ATP quantification), dose-response (liver organoids [10]): decrease in viability as concentration of drug is increased | phospholipid accumulation (liver organoids [11]): Considerable phospholipid accumulation
